According to ChEMBL document CHEMBL1133517, “Design, radiosynthesis, and biodistribution of a new potent and selective ligand for in vivo imaging of the adenosine A(2A) receptor system using positron emission tomography” (J Med Chem, 2000):

How the values were obtained:
Adenosine receptor A1 [1] = molecular target: T1, Adenosine receptor A1 (Rattus norvegicus, UniProt P25099); assay: Displacement of [3H]DPCPX from adenosine A1 receptor in rat brain membranes; type: cell membranes
T1 sequence (P25099 whole entry): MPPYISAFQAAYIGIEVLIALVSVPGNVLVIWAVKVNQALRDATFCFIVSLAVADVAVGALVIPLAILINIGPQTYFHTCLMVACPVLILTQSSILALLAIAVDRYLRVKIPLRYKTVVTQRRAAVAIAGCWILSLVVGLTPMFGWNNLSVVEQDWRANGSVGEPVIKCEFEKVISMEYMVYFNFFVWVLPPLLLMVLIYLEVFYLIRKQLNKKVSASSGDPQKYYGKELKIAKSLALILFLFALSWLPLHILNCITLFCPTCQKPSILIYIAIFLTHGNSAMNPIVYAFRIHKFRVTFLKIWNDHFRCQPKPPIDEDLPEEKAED

Adenosine receptor A3 [2] = molecular target: T2, Adenosine receptor A3 (Homo sapiens, UniProt P0DMS8); assay: Displacement of [125I]AB-MECA from human adenosine A3 receptor expressed in HEK293 cells; type: cell-based
T2 sequence (P0DMS8 whole entry): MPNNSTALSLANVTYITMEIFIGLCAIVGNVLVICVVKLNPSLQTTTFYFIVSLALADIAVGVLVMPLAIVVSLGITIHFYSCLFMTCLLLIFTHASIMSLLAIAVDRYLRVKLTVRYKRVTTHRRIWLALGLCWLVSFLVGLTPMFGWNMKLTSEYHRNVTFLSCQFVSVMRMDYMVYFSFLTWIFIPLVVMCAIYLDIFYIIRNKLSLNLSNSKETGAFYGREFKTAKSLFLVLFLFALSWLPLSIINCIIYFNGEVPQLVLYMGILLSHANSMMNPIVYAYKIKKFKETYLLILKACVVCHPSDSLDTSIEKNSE

Adenosine receptor A3 [3] = molecular target: T3, Adenosine receptor A3 (Rattus norvegicus, UniProt P28647); assay: Inhibitory activity against rat adenosine A3 receptor expressed in HEK293 cells by displacement of [125I]AB-MECA; type: cell-based
T3 sequence (P28647 whole entry): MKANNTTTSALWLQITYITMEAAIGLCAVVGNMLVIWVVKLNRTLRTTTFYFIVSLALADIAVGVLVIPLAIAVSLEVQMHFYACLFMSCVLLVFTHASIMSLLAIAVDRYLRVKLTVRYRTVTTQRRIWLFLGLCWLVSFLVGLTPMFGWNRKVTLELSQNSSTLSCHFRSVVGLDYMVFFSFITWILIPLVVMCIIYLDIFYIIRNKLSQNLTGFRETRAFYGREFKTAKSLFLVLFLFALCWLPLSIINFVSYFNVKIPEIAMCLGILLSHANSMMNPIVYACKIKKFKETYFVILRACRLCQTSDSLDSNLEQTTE

Adenosine receptor A1 [4] = molecular target: T4, Adenosine receptor A1 (Homo sapiens, UniProt P30542); assay: Inhibitory activity against human adenosine A1 receptor expressed in CHO cells by displacement of [3H]DPCPX; type: cell-based
T4 sequence (P30542 whole entry): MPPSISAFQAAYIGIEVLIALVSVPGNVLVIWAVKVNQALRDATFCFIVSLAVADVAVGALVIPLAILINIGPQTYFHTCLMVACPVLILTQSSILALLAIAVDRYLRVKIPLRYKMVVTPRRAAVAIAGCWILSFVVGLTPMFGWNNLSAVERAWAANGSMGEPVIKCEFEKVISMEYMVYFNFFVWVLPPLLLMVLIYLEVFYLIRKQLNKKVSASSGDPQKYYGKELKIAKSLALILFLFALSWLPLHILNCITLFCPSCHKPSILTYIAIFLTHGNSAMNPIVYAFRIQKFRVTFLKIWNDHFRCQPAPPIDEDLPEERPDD

Adenosine receptor A2b = molecular target: T5, Adenosine receptor A2b (Homo sapiens, UniProt P29275); assay: Inhibitory activity against human adenosine A2B receptor expressed in HEK293 cells by displacement of [3H]DPCPX; type: cell-based
T5 sequence (P29275 whole entry): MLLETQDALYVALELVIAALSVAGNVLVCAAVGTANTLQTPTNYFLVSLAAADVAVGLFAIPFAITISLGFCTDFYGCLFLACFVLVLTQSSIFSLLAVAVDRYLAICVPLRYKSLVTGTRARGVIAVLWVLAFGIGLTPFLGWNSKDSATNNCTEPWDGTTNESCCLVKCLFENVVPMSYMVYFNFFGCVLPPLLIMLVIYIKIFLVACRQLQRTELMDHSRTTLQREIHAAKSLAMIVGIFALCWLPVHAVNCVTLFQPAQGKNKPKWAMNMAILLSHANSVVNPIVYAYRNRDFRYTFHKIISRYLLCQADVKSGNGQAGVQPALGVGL

## COc1ccc(CCCn2ncc3c2nc(N)n2nc(-c4ccco4)nc32)cc1
Adenosine receptor A1 [1]
  Ki: 1810 nM
Adenosine receptor A3 [2]
  Ki: > 10000 nM
Adenosine receptor A3 [3]
  Ki: > 10000 nM
Adenosine receptor A1 [4]
  Ki: 1110 nM
Adenosine receptor A2b
  Ki: > 10000 nM
